Measurements from patent EP4800018A1, “PAN-KRAS INHIBITOR AND USE THEREOF IN MEDICINES” (Betta Pharmaceuticals Co., Ltd., priority 2023, dated 2025).
Like-named read-outs stand apart in the source and are kept apart here.

Key:
Format in all cases: cell-based
[1] = system: KRAS-G12D mutant tumor cells AGS; assay: Cell Proliferation Inhibition Assay (AGS), Cell-titer GLO, 96 h; settings: Homo sapiens, AGS, 96 h, read-out: AGS(G12D)
In short: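 AGS cells (KRAS-G12D) grown in low-attachment plates were exposed to compound for 96 h at 37°C. Viability was read by CellTiter-Glo luminescence and converted to % inhibition against max and blank wells. IC50 came from curve fitting.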

[2] = system: KRAS-G12V mutant tumor cells SW620; assay: Cell Proliferation Inhibition Assay (SW620), Cell-titer GLO, 96 h; settings: Homo sapiens, SW-620, 96 h, read-out: SW620(G12V)
In short: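 SW620 cells (1×10^3/well, low-attachment) were exposed to compound from 10000 to 0.03 nM (0.5% DMSO) for 96 h at 37°C. Viability was read by Cell-titer GLO luminescence. Inhibition was calculated relative to DMSO and blank wells, and IC50 obtained by curve fitting.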

[3] = target: T1, KRAS G12D-cRAF (Homo sapiens, UniProt P01116, G12D); assay: Cellular KRAS G12D-cRAF Binding Inhibition Assay (NanoBRET, AD293 stable cells); settings: 3 h incubation, read-out: NanoBRET KRAS G12D
T1 construct: expressed in transfected cells
T1 sequence (P01116 1-188 isoform P01116-2 G12D): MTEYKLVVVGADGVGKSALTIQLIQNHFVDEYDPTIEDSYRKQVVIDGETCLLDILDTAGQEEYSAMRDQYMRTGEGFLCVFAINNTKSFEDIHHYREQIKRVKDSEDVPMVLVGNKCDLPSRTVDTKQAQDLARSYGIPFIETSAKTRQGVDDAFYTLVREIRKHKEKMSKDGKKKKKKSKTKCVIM
In short: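 AD293 cells stably expressing KRAS G12D-NanoLuc and cRAF RBD-HaloTag were seeded at 1×10^4 cells/well with NanoBRET 618 ligand overnight. BRET signal was converted to % inhibition of binding relative to max and blank wells, and IC50 came from curve fitting.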

[4] = target: T2, KRAS G12V-cRAF (Homo sapiens, UniProt P01116, G12V); assay: Cellular KRAS G12V-cRAF Binding Inhibition Assay (NanoBRET, AD293 stable cells); settings: 3 h incubation, read-out: NanoBRET KRAS G12V
T2 construct: expressed in transfected cells
T2 sequence (P01116 1-188 isoform P01116-2 G12V): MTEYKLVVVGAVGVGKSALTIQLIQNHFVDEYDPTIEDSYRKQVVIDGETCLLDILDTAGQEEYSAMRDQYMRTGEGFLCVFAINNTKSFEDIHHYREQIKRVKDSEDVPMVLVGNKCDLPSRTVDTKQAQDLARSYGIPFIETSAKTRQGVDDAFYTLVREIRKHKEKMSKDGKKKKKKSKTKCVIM
In short: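 Live AD293 stable cells, NanoLuc donor with HaloTag NanoBRET 618 ligand acceptor added overnight. Inhibition percent from luminescence relative to max signal and medium blank; IC50 from curve fitting.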

[5] = AGS cells, 96 h incubation, Cell-titer GLO
[6] = SW620 cells, 96 h incubation, Cell-titer GLO

Structure (SMILES) | IC50 [1, 5] [nM] | IC50 [2, 6] [nM] | IC50 [3] [nM] | IC50 [4] [nM] | IC50 [1] [nM] | IC50 [2] [nM]
CC1OCCCn2c(c3c4cc(ccc42)-c2csc(n2)CC(NC(=O)C2CC2C(F)F)C(=O)N2CCCC(N2)C(=O)OCC(C)(C)C3)-c2cc(N3CCC4(CCN(C)CC4)CC3)cnc21 [Example 103, (1S,2S)-2-(difluoromethyl)-N-((1^5S,6^3S,4S,Z)-1^5,10,10-trimethyl-1^2-(9-methyl-3,9-diazaspiro[5. 5]undecan-3-yl)-5,7-dioxo-1^8,1^9,6^1,6^2,6^3,6^4,6^5,6^6-octahydro-1^5H,1^7H-8-oxa-1(13,15)-pyrido[3',2': 7,8][1,5]oxazonino[5,6-a]indola-2(4,2)-thiazola-6(1,3)-pyridazinacycloundecaphane-4-yl)cyclop ropane-1-carboxamide] | 0.85 | 0.21 | 7.74 | 22.2 |  | 
CC1OCCCn2c(c3c4cc(ccc42)-c2csc(n2)CC(NC(=O)C2CC2C(F)F)C(=O)N2CCCC(N2)C(=O)OCC(C)(C)C3)-c2cc(N3CCN(C4CCN(C)CC4)CC3)cnc21 [Example 104, (1S,2S)-2-(difluoromethyl)-N-((1^5S,6^3S,4S,Z)-1^5,10,10-trimethyl-1^2-(4-(1-methylpiperidin-4-yl)piperazin-1-yl)-5,7-dioxo-1^8,1^9,6^1,6^2,6^3,6^4,6^5,6^6-octahydro-1^5H,1^7H-8-oxa-1(13,15)-pyrido[3',2': 7,8][1,5]oxazonino[5,6-a]indola-2(4,2)-thiazola-6(1,3)-pyridazinacycloundecaphane-4-yl)cyclop ropane-1-carboxamide] | 0.63 | 0.2 | 3.2 | 11.8 |  | 
CC1OCCCn2c(c3c4cc(ccc42)-c2csc(n2)CC(NC(=O)C2CC2C(F)F)C(=O)N2CCCC(N2)C(=O)OCC(C)(C)C3)-c2cc(N3CCC(N(C)C)CC3)cnc21 [Example 105, (1S,2S)-2-(difluoromethyl)-N-((1^5S,6^3S,4S,Z)-1^2-(4-(dimethylamino)piperidin-1-yl)-1^5,10,10-trimethyl-5,7-dioxo-1^8,1^9,6^1,6^2,6^3,6^4,6^5,6^6-octahydro-1^5H,1^7H-8-oxa-1(13,15)-pyrido[3',2':7,8][1,5]oxazonino[5,6-a]indola-2(4,2)-thiazola-6(1,3)-pyridazinacycloundecaphane-4-yl)cyclopropane-1-carboxamide] | 0.69 | 0.24 | 4.55 | 16.6 |  | 
CC1OCCCn2c(c3c4cc(ccc42)-c2csc(n2)CC(NC(=O)C2CC2C(F)F)C(=O)N2CCCC(N2)C(=O)OCC(C)(C)C3)-c2cc(N3CCC(N4CCOCC4)CC3)cnc21 [Example 106, (1S,2S)-2-(difluoromethyl)-N-((1^5S,6^3S,4S,Z)-1^5,10,10-trimethyl-1^2-(4-morpholinopiperidin-1-yl)-5,7-dioxo-1^8,1^9,6^1,6^2,6^3,6^4,6^5,6^6-octahydro-1^5H,1^7H-8-oxa-1(13,15)-pyrido[3',2':7,8][1,5]oxazonino[5,6-a]indola-2(4,2)-thiazola-6(1,3)-pyridazinacycloundecaphane-4-yl)cyclopropane-1-carb oxamide] | 0.86 | 0.24 | 6.39 | 27.4 |  | 
CC1OCCCn2c(c3c4cc(ccc42)-c2csc(n2)CC(NC(=O)C2CC2C(F)F)C(=O)N2CCCC(N2)C(=O)OCC(C)(C)C3)-c2cc(N3CCN(C4CN(C)C4)CC3)cnc21 [Example 108, (1S,2S)-2-(difluoromethyl)-N-((1^5S,6^3S,4S,Z)-1^5,10,10-trimethyl-1^2-(4-(1-methylazetidin-3-yl)piperazin-1-yl)-5,7-dioxo-1^8, 1^9,6^1,6^2,6^3,6^4,6^5 ,6^6-octahydro-1^5H,1^7H-8-oxa-1(13,15)-pyrido[3',2':7,8][1,5]oxazonino[5,6-a]indola-2(4,2)-thiazola-6(1,3)-pyridazinacycloundecaphane-4-yl)cycloprop ane-1-carboxamide] |  |  | 6.1 | 37.9 | 0.58 | 0.28
CC1OCCCn2c(c3c4cc(ccc42)-c2csc(n2)CC(NC(=O)C2CC2C(F)F)C(=O)N2CCCC(N2)C(=O)OCC(C)(C)C3)-c2cc(N3CCN(C4CCOCC4)CC3)cnc21 [Example 109, (1S,2S)-2-(difluoromethyl)-N-((1^5S,6^3S,4S,Z)-1^5,10,10-trimethyl-5,7-dioxo-1^2-(4-(tetrahydro-2H -pyran-4-yl)piperazin-1-yl)-18, 1^9,6^1,6^2,6^3 ,6^4,6^5,6^6-octahydro-1^5H,1^7H-8-oxa-1(13,15)-pyrido[3',2' :7,8][1,5]oxazonino[5,6-a]indola-2(4,2)-thiazola-6(1,3)-pyridazinacycloundecaphane-4-yl)cyclo propane-1-carboxamide] | 1.02 | 0.2 | 6.2 | 14.9 |  | 
CC1OCCCn2c(c3c4cc(ccc42)-c2csc(n2)CC(NC(=O)C2CC2C(F)F)C(=O)N2CCCC(N2)C(=O)OCC(C)(C)C3)-c2cc(N3CCNCC3)cnc21 [Example 112, (1S,2S)-2-(difluoromethyl)-N-((1^5S,6^3S,4S,Z)-1^5,10,10-trimethyl-5,7-dioxo-1^2-(piperazin-1-yl)-1 ^8,1^9,6^1,6^2,6^3,6^4,6^5,6^6-octahydro-1^5H,1^7H-8-oxa-1(13,15)-pyrido[3',2':7,8][1,5]oxazonino[5,6-a]indola-2(4,2)-thiazola-6(1,3)-pyridazinacycloundecaphane-4-yl)cyclopropane-1-carboxamide] | 2.68 | 0.34 | 8.39 | 34.2 |  | 
CC1OCCCn2c(c3c4cc(ccc42)-c2csc(n2)CC(NC(=O)C2CC2C(F)F)C(=O)N2CCCC(N2)C(=O)OCC(C)(C)C3)-c2cc(N3CC(N4CCOCC4)C3)cnc21 [Example 115, (1S,2S)-2-(difluoromethyl)-N-((1^5S,6^3S,4S,Z)-1^5,10,10-trimethyl-1^2-(3-morpholinoazetidin-1-yl) -5,7-dioxo-1^8,1^9,6^1,6^2,6^3,6^4,6^5,6^6-octahydro-1^5H,1^7H-8-oxa-1(13,15)-pyrido[3',2':7,8][1,5]oxazonino[5,6-a]indola-2(4,2)-thiazola-6(1,3)-pyridazinacycloundecaphane-4-yl)cyclopropane-1-carbox amide] | 1.72 | 0.9 | 4.28 | 16.3 |  | 

More lines, in order of falling IC50 [1, 5], values ahead:

IC50 [1, 5] [nM] | IC50 [2, 6] [nM] | IC50 [3] [nM] | IC50 [4] [nM] | Structure (SMILES) | IC50 [1] [nM] | IC50 [2] [nM]
15.7 | 3.4 | 19.4 | 65.8 | CC1OCCCn2c(c3c4cc(ccc42)-c2csc(n2)CC(NC(=O)C2CC2C(F)F)C(=O)N2CCCC(N2)C(=O)OCC(C)(C)C3)-c2cc(N3CCC(F)(F)CC3)cnc21 [Example 114, (1S,2S)-2-(difluoromethyl)-N-((1^5S,6^3S,4S,Z)-1^2-(4,4-difluoropiperidin-1-yl)-1^5,10,10-trimethyl-5,7-dioxo-1^8,1^9,6^1,6^2,6^3,6^4,6^5,6^6-octahydro-1^5H, 1^7H-8-oxa-1(13,15)-pyrido[3',2':7,8][1,5]oxazonino[5,6-alindola-2(4,2)-thiazola-6(1,3)-pyridazinacycloundecaphane-4-yl)cyclopropane-1-carbox amide] |  | 
3.6 | 0.54 | 7.1 | 23.9 | COC1CCN(c2cnc3c(c2)-c2c4c5cc(ccc5n2CCCOC3C)-c2csc(n2)CC(NC(=O)C2CC2C(F)F)C(=O)N2CCCC(N2)C(=O)OCC(C)(C)C4)CC1 [Example 113, (1S,2S)-2-(difluoromethyl)-N-((1^5S,6^3S,4S,Z)-1^2-(4-methoxypiperidin-1-yl)-1^5,10,10-trimethyl-5,7-dioxo-1^8,1^9,6^1,6^2,6^3,6^4,6^5,6^6-octahydro-1^5H, 1^7H-8-oxa-1(13,15)-pyrido[3',2':7,8][1,5]oxazonino[5,6-alindola-2(4,2)-thiazola-6(1,3)-pyridazinacycloundecaphane-4-yl)cyclopropane-1-carbox amide] |  | 
1.12 | 0.15 | 4.17 | 14 | CC1OCCCn2c(c3c4cc(ccc42)-c2csc(n2)CC(NC(=O)C2CC2C(F)F)C(=O)N2CCCC(N2)C(=O)OCC(C)(C)C3)-c2cc(N3CCN4CCOCC4C3)cnc21 [Example 110, (1S,2S)-2-(difluoromethyl)-N-((1^5S,6^3S,4S,Z)-1^2-((S)-hexahydropyrazino[2,1-c][1,4]oxazin-8(1 H)-yl)-1^5,10,10-trimethyl-5,7-dioxo-1^8,1^9,6^1,6^2,6^3,6^4,6^5,6^6-octahydro-1^5H,1^7H-8-oxa-1(13,15)-pyrido[3',2':7,8][1,5]oxazonino[5,6-a]indola-2(4,2)-thiazola-6(1,3)-pyridazinacycloundecaphane-4-yl)cyclopropane-1-carboxamide] |  | 
